As usually defined, the IC50 is the point on the concentration scale where inhibition reaches its midpoint. What is called IC90 is the concentration at which the effect reaches the 90% level. A word on the CC50: it is the concentration at which the toxic effect on the cells reaches its halfway point.

Series [1] has as its system P. falciparum Dd2^H97Y. On the set-up: key: S: sensitive; R: resistant. To be noted: ref [19],[20],[51]; cited from earlier work.
Series [2] concerns P. falciparum Dd2^F145I. On the set-up: key to Phenotype, Dd2^F145I: S: sensitive; R: resistant. To be noted: cited from earlier work.
Series [3] concerns P. falciparum Dd2^M343L. The series can be described thus: ABS susceptibility, pfcrt-edited line. The class given is cell-based. To be noted: Plasmodium falciparum. On the procedure:
(§1) P. falciparum ABS parasites were cultured at 3% hematocrit in human O^+ RBCs in RPMI-1640 media supplemented with 25 mM HEPES, 50 mg/L hypoxanthine, 2 mM L-glutamine, 0.21% sodium bicarbonate, 0.5% (w/v) AlbuMAXII (Invitrogen) and 10 μg/mL gentamycin. Culture flasks were kept in modular incubator chambers (Billups-Rothenberg) in a 5% O2, 5% CO2, and 90% N2 atmosphere at 37°C. Synchronized ring-stage parasites were obtained by two consecutive rounds of treatment with 5% D-sorbitol in 48-hour intervals. […] This was done by exposing cultures at 1% hematocrit and 0.3% parasitemia in 96-well plates in the presence of drugs in a two-fold 10 or 12-point serial dilution in duplicate along with drug-free controls. After a 72-hour incubation, parasite survival was assessed by flow cytometry on an iQue flow cytometer (Sartorius) using SYBR Green and MitoTracker Deep Red FM (Life Technologies) as nuclear stain and vital dye, respectively. Parasite survival was determined as a percentage relative to drug-free control. IC50 values were interpolated from log concentration versus response curves in Prism 9 (GraphPad Prism Software Inc.).

Series [4] concerns P. falciparum Dd2^F145I. The series can be described thus: ABS susceptibility, pfcrt-edited line. The class given is cell-based. To be noted: Plasmodium falciparum. On the procedure: as §1
In series [5] the test system is P. falciparum Dd2^T93S. Kind of series: ABS susceptibility, pfcrt-edited line. The class given is cell-based. To be noted: Plasmodium falciparum. Here is the method:
as §1

Series [6] concerns P. falciparum Dd2^Dd2. Kind of series: ABS susceptibility, pfcrt-edited line. It counts as cell-based. To be noted: Plasmodium falciparum. Here is the method:
as §1

For series [7], the system named is P. falciparum 7G8^C350R. Kind of series: ABS susceptibility, pfcrt-edited line. The class given is cell-based. To be noted: Plasmodium falciparum. Here is the method:
as §1

In series [8] the test system is P. falciparum 7G8^7G8. The series can be described thus: ABS susceptibility, pfcrt-edited line. The class given is cell-based. To be noted: Plasmodium falciparum. On the procedure: as §1
Series [9] relates to P. falciparum Dd2^I218F. The series can be described thus: ABS susceptibility, pfcrt-edited line. To be noted: Plasmodium falciparum. It counts as cell-based. Here is the method:
as §1

Series [10] concerns P. falciparum 7G8^F145I. The series can be described thus: ABS susceptibility, pfcrt-edited line. To be noted: Plasmodium falciparum. The class given is cell-based. Here is the method:
as §1

The subject of series [11] is P. falciparum Dd2^H97Y. Kind of series: ABS susceptibility, pfcrt-edited line. To be noted: Plasmodium falciparum. The class given is cell-based. On the procedure: as §1
For series [12], the system named is P. falciparum Dd2^G353V. Kind of series: ABS susceptibility, pfcrt-edited line. It counts as cell-based. To be noted: Plasmodium falciparum. On the procedure:
as §1

In series [13] the test system is P. falciparum Dd2^3D7. Kind of series: ABS susceptibility, pfcrt-edited line. The class given is cell-based. To be noted: Plasmodium falciparum. Here is the method:
as §1

Series [14] relates to PfCRT variants (7G8, 7G8^F145I, 7G8^C350R). The series can be described thus: SSM-based electrophysiology (SURFE2R N1) of PfCRT proteoliposomes. It counts as biochemical, Plasmodium falciparum. To be noted: 10 μM, distinct PfCRT isoforms. On the procedure: Solid Supported Membrane (SSM)-based electrophysiological measurements were performed using SURFE^2R N1 technology (Nanion Technologies, Inc.) according to published protocols. Briefly, sensors were coated with 1-octadecanethiol (Sigma-Aldrich), rinsed, and 1,2-diphytanoyl-sn-glycero-3-phosphocholine (Avanti Polar Lipids, Inc) was added. Immediately, the sensor was filled with 50 μL non-activating buffer (10 mM Tris-MES, pH 5.5) and PfCRT-containing proteoliposomes (PLs). To generate a K^+ diffusion potential-driven ΔΨ, valinomycin was included at a final concentration of 80 nM [34, 35]. The activating solution (10 mM Tris-MES, pH 5.5 containing either 10 μM CQ, PPQ, LDT-623, pyrimethamine, or atovaquone) was applied using a single-solution exchange protocol (activating buffer incubation for 1 second). Each measurement was repeated at least twice employing at least three different sensors. Peak currents for PfCRT were corrected by subtracting the peak currents recorded with control liposomes (lacking this transporter). To acquire the PfCRT-elicited charge (Coulomb) movement associated with drug transport, the area under the curve (current as a function of time) was analyzed with GraphPad Prism version 10.

Series [15] relates to P. falciparum Dd2-Pol δ parasites. Kind of series: Single-step in vitro resistance selection. It counts as cell-based, Plasmodium falciparum. Here is the method: Resistance to LDT-623 was assessed using single-step in vitro resistance selection protocols. […] Dd2-Pol δ is a hypermutable line with two point mutations in DNA polymerase δ that compromise its proofreading activity Cultures were monitored daily by thin blood smears until live parasites were no longer detectable. Drug-containing media was changed daily until parasites cleared, and every other day thereafter. Cultures were passaged once weekly by reducing the volume by 25% and replacing 1/3 of RBCs. Recrudescence monitoring was carried out twice a week by thin blood smears for 60 days. In the event of recrudescence, parasite susceptibility to LDT-623 was tested as described above.

Series [16] is described as follows: MTT cytotoxicity assay, 72 h. To be noted: monkey, COS-7 cells; MTT, 72 h, N = 3. It counts as cell-based, monkey. Here is the method:
(§2) Human hepatoma (HepG2) and fibroblast-like monkey kidney cells (COS-7) were cultured in Dulbecco’s Modified Eagle Medium supplemented with 10% heat-inactivated fetal bovine serum and gentamycin (40 mg/L) at 37°C in a 5% CO2 atmosphere. Cytotoxicity of test compounds was measured by metabolic reduction of mitochondrial enzymes using the MTT assay (3-[4,5-dimethyl-thiazol-2-yl]-2,5-diphenyltetrazolium chloride). Cells were seeded at 10^5 cells/well in 96-well plates and incubated for 72 hours in the presence of a 2-fold 12-point serial dilution of drugs along with drug-free controls. After adding 15 μL of MTT (5 mg/mL) to the wells, plates were centrifuged at 317g for 5 minutes and the pellet was resuspended in isopropanol. Absorbance was measured at 570 nm (CLARIOStar, Labtech BMG). Cell viability was determined by formazan production, and was expressed as a percentage of untreated control wells.
(In general: Tetrazolium dyes change colour on reduction, which living cells bring about.)

The subject of series [17] is COS-7 cells. Kind of series: MTT cytotoxicity assay, 72 h. The class given is cell-based, monkey. On the procedure:
as §2

Read-outs that look alike come from different tables or passages of the source.

For `CCN(CC)CCCC(C)Nc1ccnc2cc(Cl)ccc12` (centres unmarked) [CQ, chloroquine], the “Phenotype, Dd2^H97Y” value in [1] is listed as “R”. In [2] (Dd2F145I, mean ± SEM, ref 1 (Ross et al., 2018)), the IC50 is 19.3 ± 1.3 nM. Further, the “Phenotype, Dd2^F145I” value in series [2] (a: sensitized to CQ compared to the parental line but not fully sensitive, ref [19],[20],[51]) is on record as “S ^a”.
On to `COc1cc2nccc(Nc3cccc(Oc4ccccc4)c3)c2cc1OC` [LDT-623], for which the concentration for half-maximal inhibition (IC50) in [3] is 416 ± 50 nM; in [4] it was 541 ± 83.7 nM; in [5], 227 ± 9 nM; in series [6], 452 ± 31 nM; in series [7], 576 ± 49.4 nM; in series [8], 579 ± 67.5 nM. For the same compound, the half-maximal inhibitory concentration (IC50) in series [9] was 435 ± 20.1 nM; in series [10], 439 ± 22.7 nM; in series [11], 416 ± 59.6 nM; in series [12] it was 456 ± 9.6 nM; in series [13] it was 232 ± 10.5 nM. Also, the IC90 in series [3] worked out at 6860 ± 333 nM; in series [4], 3790 ± 1730 nM; in series [5], 429 ± 41.7 nM; in series [6] it was 6340 ± 1660 nM; in [7], 4050 ± 3080 nM; in series [8], 980 ± 133 nM. For the same compound, the concentration for an effect of 90% (IC90) in [9] came out at 3980 ± 1680 nM; in series [10], 6570 ± 3250 nM; in series [11], 5270 ± 99.2 nM; in series [12] it was 6510 ± 1540 nM; in series [13], 455 ± 51.1 nM. For the same compound, the “PfCRT-specific currents” value in series [14] is “elicits the same magnitude of currents as CQ and PPQ”. Also, the “recrudescence under constant drug pressure” value in series [15] (3 × IC50 (1 μM), 1 × 10^9 parasites, 60 days) is reported as “No parasite recrudescence”. Further, the “log minimum inoculum of resistance (MIR)” value in series [15] (constant drug pressure) is recorded as “higher than 9”. In [15] (drug pressure removed after day 7, both flasks), this compound yielded a day of recrudescence of 21 days. Moreover, in [15] (either flask), the “IC50 of recrudescent bulk parasites vs Dd2-Polδ parent” value is “no difference in IC50”. In series [16], it took 500 ± 100 nM to reach half-maximal cytotoxicity (CC50 at 72 h). In series [17], the “SI (CC50 COS-7 / IC50 3D7)” value came to 3.8.

The values are drawn from publication PMC11521309, “A novel 4-aminoquinoline chemotype with multistage antimalarial activity and lack of cross-resistance with PfCRT and PfMDR1 mutants” (PLOS Pathogens, 2024).
